# Test results taken from patent US20240109930A1, “TRIAZOLYL-METHYL SUBSTITUTED ALPHA-D-GALACTOPYRANOSIDE DERIVATIVES” (Idorsia Pharmaceuticals Ltd, priority 2021, published 2024).
# Tests used:
# [1] = target: human Gal-1 (hGal-1) (Homo sapiens, UniProt P09382, C131S/C17S/C43S/C61S/C89S); assay: Competitive binding assay: biotinylated hGal-1 binding to microplate-adsorbed asialofetuin (ASF); conditions: IC50 values from several measurements given as geomean
# Protocol: (§1) The inhibitory activity of compounds is determined in competitive binding assays. This spectrophotometric assay measures the binding of biotinylated human Gal-3 (hGal-3) or human Gal-1 (hGal-1), respectively, to a microplate-adsorbed glycoprotein, asialofetuin (ASF) (Proc Natl Acad Sci USA. 2013 Mar. 26; 110(13):5052-7.). Alternatively, and preferably, a human Gal-1 version in which all six cysteines are substituted by serines may be used.
# (§2) Briefly, compounds are serially diluted in DMSO (working dilutions). ASF-coated 384well plates are supplemented with 22.8 μL/well of biotinylated hGal-3 or hGal-1 in assay buffer (i.e. 300-1000 ng/mL biotinylated hGal-3 or hGal-1) to which 1.2 μL of compound working dilutions are added and mixed.
# (§3) Plates are incubated for 3 hours at 4° C., then washed with cold assay buffer (3×50 uL), incubated for 1 hour with 25 μL/well of a streptavidin-peroxidase solution (diluted in assay buffer to 80 ng/mL) at 4° C., followed by further washing steps with assay buffer (3×50 uL). Finally, 25 μL/well of ABTS substrate is added.
# (§4) The calculated IC50 values may fluctuate depending on the daily assay performance. Fluctuations of this kind are known to those skilled in the art. IC50 values from several measurements are given as geomean values.
# [2] = target: human Gal-3 (hGal-3) (Homo sapiens (Human), UniProt P17931); assay: Competitive binding assay: biotinylated hGal-3 binding to microplate-adsorbed asialofetuin (ASF); conditions: IC50 values from several measurements given as geomean
# Sequence of human Gal-3 (hGal-3) (P17931 whole entry): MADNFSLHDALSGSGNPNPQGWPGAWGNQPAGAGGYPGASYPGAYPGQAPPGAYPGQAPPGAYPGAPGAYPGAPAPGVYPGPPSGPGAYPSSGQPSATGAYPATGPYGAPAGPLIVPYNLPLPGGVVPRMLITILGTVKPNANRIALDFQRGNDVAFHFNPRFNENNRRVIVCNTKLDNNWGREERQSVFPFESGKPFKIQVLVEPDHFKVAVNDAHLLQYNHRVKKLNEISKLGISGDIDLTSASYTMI
# Protocol: as §1, §2, §3, §4
SMILES,IC50 [1] [nM],IC50 [2] [nM]
"CO[C@@H]1[C@@H](n2cc(-c3ccc(Cl)c(F)c3F)nn2)[C@@H](O)[C@@H](CO)O[C@@H]1Cc1cn(C2COCCC2(F)F)nn1 (single isomer, unassigned) [Example 2.1.73.B]",1200,60
CO[C@@H]1[C@@H](n2cc(-c3ccc(F)c(F)c3F)nn2)[C@@H](O)[C@@H](CO)O[C@@H]1Cn1cc(C(C)(C)O)nn1 [Ex 3.2.34.],720,440
CO[C@@H]1[C@@H](n2cc(-c3ccc(C)c(F)c3F)nn2)[C@@H](O)[C@@H](CO)O[C@@H]1Cn1cc(C2(O)CC2)nn1 [Ex 1.2.36.],7710,80
CO[C@@H]1[C@@H](n2cc(-c3ccc(Cl)c(F)c3F)nn2)[C@@H](O)[C@@H](CO)O[C@@H]1Cc1cn(C23CC(C)(C2)C3)nn1 [Ex 2.1.14.],3450,50
"CO[C@@H]1[C@@H](n2cc(-c3ccc(Cl)c(F)c3F)nn2)[C@@H](O)[C@@H](CO)O[C@@H]1Cc1cn(C23COC(C)(C2)C3)nn1 [Ex 2.1.59., (2R,3R,4S,5R,6R)-4-(4-(4-chloro-2,3-difluorophenyl)-1H-1,2,3-triazol-1-yl)-2-(hydroxymethyl)-5-methoxy-6-((1-(1-methyl-2-oxabicyclo[2.1.1]hexan-4-yl)-1H-1,2,3-triazol-4-yl)methyl)tetrahydro-2H-pyran-3-ol]",2370,50
"CO[C@@H]1[C@@H](n2cc(-c3ccc(Cl)c(F)c3F)nn2)[C@@H](O)[C@@H](CO)O[C@@H]1Cc1cn(C2(C(F)(F)F)CCOC2)nn1 (stereo partly drawn) [Example 2.1.77.A, (2R,3R,4S,5R,6R)-4-(4-(4-chloro-2,3-difluorophenyl)-1H-1,2,3-triazol-1-yl)-2-(hydroxymethyl)-5-methoxy-6-((1-(3-(trifluoromethyl)tetrahydrofuran-3-yl)-1H-1,2,3-triazol-4-yl)methyl)tetrahydro-2H-pyran-3-ol]",760,–
"CO[C@@H]1[C@@H](n2cc(-c3ccc(Cl)c(F)c3F)nn2)[C@@H](O)[C@@H](CO)O[C@@H]1Cc1cn(C2COCCC2(F)F)nn1 (stereo partly drawn) [Example 2.1.73.A, (2R,3R,4S,5R,6R)-4-(4-(4-chloro-2,3-difluorophenyl)-1H-1,2,3-triazol-1-yl)-6-((1-(4,4-difluorotetrahydro-2H-pyran-3-yl)-1H-1,2,3-triazol-4-yl)methyl)-2-(hydroxymethyl)-5-methoxytetrahydro-2H-pyran-3-ol]",1400,–
CO[C@@H]1[C@@H](n2cc(-c3ccc(Br)c(F)c3F)nn2)[C@@H](O)[C@@H](CO)O[C@@H]1Cn1cc(C2(O)CCC2)nn1 [Ex 4.2.31.],2550,–
"CO[C@@H]1[C@@H](n2cc(-c3ccc(Cl)c(F)c3F)nn2)[C@@H](O)[C@@H](CO)O[C@@H]1Cc1cn([C@@H]2CC[C@H]2F)nn1 (relative stereo) [Example 2.1.88.C, (2R,3R,4S,5R,6R)-4-(4-(4-chloro-2,3-difluorophenyl)-1H-1,2,3-triazol-1-yl)-6-((1-((1R*,2R*)-2-fluorocyclobutyl)-1H-1,2,3-triazol-4-yl)methyl)-2-(hydroxymethyl)-5-methoxytetrahydro-2H-pyran-3-ol]",1680,–

# Next, values leading:
IC50 [1] [nM],IC50 [2] [nM],SMILES
850,30,"CO[C@@H]1[C@@H](n2cc(-c3ccc(Br)c(F)c3F)nn2)[C@@H](O)[C@@H](CO)O[C@@H]1Cc1cn(C2(CF)COC2)nn1 [Ex 4.1.52., (2R,3R,4S,5R,6R)-4-(4-(4-bromo-2,3-difluorophenyl)-1H-1,2,3-triazol-1-yl)-6-((1-(3-(fluoromethyl)oxetan-3-yl)-1H-1,2,3-triazol-4-yl)methyl)-2-(hydroxymethyl)-5-methoxytetrahydro-2H-pyran-3-ol]"
290,30,"CO[C@@H]1[C@@H](n2cc(-c3ccc(F)c(F)c3F)nn2)[C@@H](O)[C@@H](CO)O[C@@H]1Cc1cn(C(C)(C)C(F)F)nn1 [Ex 3.1.28., (2R,3R,4S,5R,6R)-6-((1-(1,1-difluoro-2-methylpropan-2-yl)-1H-1,2,3-triazol-4-yl)methyl)-2-(hydroxymethyl)-5-methoxy-4-(4-(2,3,4-trifluorophenyl)-1H-1,2,3-triazol-1-yl)tetrahydro-2H-pyran-3-ol]"
2530,70,CO[C@@H]1[C@@H](n2cc(-c3ccc(Br)c(F)c3F)nn2)[C@@H](O)[C@@H](CO)O[C@@H]1Cn1cc(C2(C)COC2)nn1 [Ex 4.2.6.]
2480,50,CO[C@@H]1[C@@H](n2cc(-c3ccc(Br)c(F)c3F)nn2)[C@@H](O)[C@@H](CO)O[C@@H]1Cn1cc(C2(C)CC2)nn1 [Ex 4.2.23.]
240,40,CO[C@@H]1[C@@H](n2cc(-c3ccc(F)c(F)c3F)nn2)[C@@H](O)[C@@H](CO)O[C@@H]1Cc1cn(C2(C(F)F)CC2)nn1 [Ex 3.1.51.]
1510,20,"CO[C@@H]1[C@@H](n2cc(-c3ccc(Cl)c(F)c3F)nn2)[C@@H](O)[C@@H](CO)O[C@@H]1Cc1cn([C@@H]2CCC[C@@H]2F)nn1 [Example 2.1.79.A, (2R,3R,4S,5R,6R)-4-(4-(4-chloro-2,3-difluorophenyl)-1H-1,2,3-triazol-1-yl)-6-((1-((1R,2S)-2-fluorocyclopentyl)-1H-1,2,3-triazol-4-yl)methyl)-2-(hydroxymethyl)-5-methoxytetrahydro-2H-pyran-3-ol]"
470,50,CCC1(c2cn(C[C@H]3O[C@H](CO)[C@H](O)[C@H](n4cc(-c5ccc(F)c(F)c5F)nn4)[C@H]3OC)nn2)COC1 [Ex 3.2.38.]
3910,60,CO[C@@H]1[C@@H](n2cc(-c3ccc(Cl)c(F)c3F)nn2)[C@@H](O)[C@@H](CO)O[C@@H]1Cn1cc(C2(O)CCOCC2)nn1 [Ex 2.2.35.]
5100,60,COCC1(n2cc(C[C@H]3O[C@H](CO)[C@H](O)[C@H](n4cc(-c5ccc(C)c(F)c5F)nn4)[C@H]3OC)nn2)CC1 [Ex 1.1.7.]
3250,50,CO[C@@H]1[C@@H](n2cc(-c3ccc(Cl)c(F)c3F)nn2)[C@@H](O)[C@@H](CO)O[C@@H]1Cc1cn(C23CC(C2)C3)nn1 [Ex 2.1.12.]
800,–,CO[C@@H]1[C@@H](n2cc(-c3ccc(F)c(F)c3F)nn2)[C@@H](O)[C@@H](CO)O[C@@H]1Cc1cn(C23COC(C2)C3)nn1 [Ex 3.1.44.]
1770,–,"CO[C@@H]1[C@@H](n2cc(-c3ccc(Cl)c(F)c3F)nn2)[C@@H](O)[C@@H](CO)O[C@@H]1Cc1cn([C@@H]2CC[C@@H]2F)nn1 (relative stereo) [Example 2.1.88.A, (2R,3R,4S,5R,6R)-4-(4-(4-chloro-2,3-difluorophenyl)-1H-1,2,3-triazol-1-yl)-6-((1-((1R*,2S*)-2-fluorocyclobutyl)-1H-1,2,3-triazol-4-yl)methyl)-2-(hydroxymethyl)-5-methoxytetrahydro-2H-pyran-3-ol]"
–,40,"CO[C@@H]1[C@@H](n2cc(-c3ccc(F)c(F)c3F)nn2)[C@@H](O)[C@@H](CO)O[C@@H]1Cc1cn(C23COC(C2)C3)nn1 [Example 3.1.44, (2R,3R,4S,5R,6R)-6-((1-(2-oxabicyclo[2.1.1]hexan-4-yl)-1H-1,2,3-triazol-4-yl)methyl)-2-(hydroxymethyl)-5-methoxy-4-(4-(2,3,4-trifluorophenyl)-1H-1,2,3-triazol-1-yl)tetrahydro-2H-pyran-3-ol]"
730,–,CO[C@@H]1[C@@H](n2cc(-c3ccc(F)c(F)c3F)nn2)[C@@H](O)[C@@H](CO)O[C@@H]1Cn1cc(C2(O)CCC2)nn1 [Ex 3.2.31.]
